Key:
Format in all cases: in vivo
[1] = tested on: Nilaparvata lugens (Brown Plant Hopper); test: Example B12: Activity against Nilaparvata lugens (brown plant hopper), larvicide, systemic into water; conditions: 168 h, application rate of 12.5 ppm, systemic into nutritive solution, rice plants, N3 nymphs, 7 days after infestation
Protocol: Example B12: Activity Against Nilaparvata lugens (Brown Plant Hopper) Larvicide, Systemic into Water
Rice plants cultivated in a nutritive solution were treated with the diluted test solutions into nourishing cultivation system. 1 day after application plants were infested with ˜20 N3 nymphs. 7 days after infestation samples were assessed for mortality and growth regulation.

[2] = tested on: Plutella xylostella (Diamond Back Moth); test: Example B5: Activity against Plutella xylostella (diamond back moth), eggs, artificial diet; conditions: 192 h, application rate of 200 ppm, 8 days after infestation, read-out: effect in at least one of the two categories (mortality or growth inhibition)
Protocol: Example B5: Activity Against Plutella xylostella (Diamond Back Moth)
24-well microtiter plates with artificial diet were treated with aqueous test solutions prepared from 10′000 ppm DMSO stock solutions by pipetting. After drying, Plutella eggs were pipetted through a plastic stencil onto a gel blotting paper and the plate was closed with it. The samples were assessed for mortality and growth inhibition in comparison to untreated samples 8 days after infestation.

[3] = tested on: Bemisia tabaci (Cotton White Fly); test: Example B1: Activity against Bemisia tabaci (cotton white fly), sprayed cotton leaf discs; conditions: foliar, 144 h, application rate of 200 ppm, adult white flies on cotton leaf discs, 6 days after incubation
Protocol: Example B1: Activity Against Bemisia tabaci (Cotton White Fly)
Cotton leaf discs were placed on agar in 24-well microtiter plates and sprayed with aqueous test solutions prepared from 10′000 ppm DMSO stock solutions. After drying the leaf discs were infested with adult white flies. The samples were checked for mortality 6 days after incubation.

[4] = tested on: Diabrotica balteata (Corn Root Worm); test: Example B2: Activity against Diabrotica balteata (corn root worm), sprayed maize sprouts; conditions: 96 h, application rate of 200 ppm, L2 larvae on maize sprouts, 4 days after infestation, read-out: effect in at least one of the two categories (mortality or growth inhibition)
Protocol: Example B2: Activity Against Diabrotica balteata (Corn Root Worm)
Maize sprouts placed onto an agar layer in 24-well microtiter plates were treated with aqueous test solutions prepared from 10′000 ppm DMSO stock solutions by spraying. After drying, the plates were infested with L2 larvae (6 to 10 per well). The samples were assessed for mortality and growth inhibition in comparison to untreated samples 4 days after infestation.

[5] = tested on: Tetranychus urticae (Two-Spotted Spider Mite); test: Example B10: Activity against Tetranychus urticae (two-spotted spider mite), sprayed bean leaf discs; conditions: foliar, 192 h, application rate of 200 ppm, mixed population (mobile stages) on bean leaf discs, 8 days after infestation
Protocol: Example B10: Activity Against Tetranychus urticae (Two-Spotted Spider Mite)
Bean leaf discs on agar in 24-well microtiter plates were sprayed with aqueous test solutions prepared from 10′000 ppm DMSO stock solutions. After drying the leaf discs were infested with a mite population of mixed ages. The samples were assessed for mortality on mixed population (mobile stages) 8 days after infestation.

[6] = tested on: Euschistus heros (Neotropical Brown Stink Bug); test: Example B3: Activity against Euschistus heros (neotropical brown stink bug), sprayed soybean leaf; conditions: 120 h, application rate of 200 ppm, N-2 nymphs on soybean leaf, 5 days after infestation, read-out: effect in at least one of the two categories (mortality or growth inhibition)
Protocol: Example B3: Activity Against Euschistus heros (Neotropical Brown Stink Bug)
Soybean leaf on agar in 24-well microtiter plates were sprayed with aqueous test solutions prepared from 10′000 ppm DMSO stock solutions. After drying the leaf were infested with N-2 nymphs. The samples were assessed for mortality and growth inhibition in comparison to untreated samples 5 days after infestation.

[7] = tested on: Myzus persicae (Green Peach Aphid); test: Example B6: Activity against Myzus persicae (green peach aphid), sprayed sunflower leaf discs; conditions: foliar, 144 h, application rate of 200 ppm, aphid population of mixed ages on sunflower leaf discs, 6 days after infestation
Protocol: Example B6: Activity Against Myzus persicae (Green Peach Aphid)
Sunflower leaf discs were placed on agar in a 24-well microtiter plate and sprayed with aqueous test solutions prepared from 10′000 ppm DMSO stock solutions. After drying, the leaf discs were infested with an aphid population of mixed ages. The samples were assessed for mortality 6 days after infestation.

[8] = tested on: Nilaparvata lugens (Brown Plant Hopper); test: Example B11: Activity against Nilaparvata lugens (brown plant hopper), larvicide, feeding/contact; conditions: 168 h, application rate of 50 ppm, N3 nymphs on sprayed rice plants, 7 days after the treatment
Protocol: Example B11: Activity Against Nilaparvata lugens (Brown Plant Hopper) Larvicide, Feeding/Contact
Rice plants were treated with the diluted test solutions in a spray chamber. After drying plants were infested with ˜20 N3 nymphs. 7 days after the treatment samples were assessed for mortality and growth regulation.

[9] = tested on: Spodoptera littoralis (Egyptian Cotton Leaf Worm); test: Example B9: Activity against Spodoptera littoralis (Egyptian cotton leaf worm), sprayed cotton leaf discs; conditions: foliar, 72 h, application rate of 200 ppm, L1 larvae on cotton leaf discs, 3 days after infestation
Protocol: Example B9: Activity Against Spodoptera littoralis (Egyptian Cotton Leaf Worm)
Cotton leaf discs were placed onto agar in 24-well microtiter plates and sprayed with aqueous test solutions prepared from 10′000 ppm DMSO stock solutions. After drying the leaf discs were infested with five L1 larvae. The samples were assessed for mortality, anti-feeding effect, and growth inhibition in comparison to untreated samples 3 days after infestation. Control of Spodoptera littoralis by a test sample is given when at least one of the categories mortality, anti-feedant effect, and growth inhibition is higher than the untreated sample.

[10] = tested on: Plutella xylostella (Diamond Back Moth); test: Example B8: Activity against Plutella xylostella (diamond back moth), L2 larvae, artificial diet; conditions: 120 h, application rate of 200 ppm, 5 days after infestation, read-out: effect in at least one of the two categories (mortality or growth inhibition)
Protocol: Example B8: Activity Against Plutella xylostella (Diamond Back Moth)
24-well microtiter plates with artificial diet were treated with aqueous test solutions prepared from 10′000 ppm DMSO stock solutions by pipetting. After drying, the plates were infested with L2 larvae (10 to 15 per well). The samples were assessed for mortality and growth inhibition in comparison to untreated samples 5 days after infestation.

[11] = tested on: Myzus persicae (Green Peach Aphid); test: Example B7: Activity against Myzus persicae (green peach aphid), roots of pea seedlings in test solution; conditions: 144 h, test rate of 24 ppm, roots of infested pea seedlings in test solution, 6 days
Protocol: Example B7: Activity Against Myzus persicae (Green Peach Aphid)
Roots of pea seedlings infested with an aphid population of mixed ages were placed directly in the aqueous test solutions prepared from 10′000 DMSO stock solutions. The samples were assessed for mortality 6 days after placing seedlings in test solutions.

[12] = tested on: Carpocapsa (Cydia) pomonella (Codling Moth); test: Example B15: Activity against Carpocapsa (Cydia) pomonella (codling moth), larvicide, feeding/contact; conditions: 336 h, application rate of 12.5 ppm, L1 larvae on sprayed diet cubes, 14 days after infestation, read-out: effect in at least one of the two categories (mortality or growth inhibition)
Protocol: Example B15: Activity Against Carpocapsa (Cydia) pomonella (Codling Moth), Larvicide, Feeding/Contact
Diet cubes coated with paraffin were sprayed with diluted test solutions in an application chamber. After drying off the treated cubes (10 replicates) were infested with 1 L1 larvae. Samples were incubated at 26-27° C. and checked 14 days after infestation for mortality and growth inhibition.

Cn1c(-c2ncc(OC(C)(C)C#N)cc2S(=O)(=O)CC2CC2)nc2cc(C(F)(F)F)nnc21 [Compound P1, 2-[[5-(cyclopropylmethylsulfonyl)-6-[7-methyl-3-(trifluoromethyl)imidazo[4,5-c]pyridazin-6-yl]-3-pyridyl]oxy]-2-methyl-propanenitrile]
≥ 80%: mortality at 12.5 ppm [1] | percent effect (mortality or growth inhibition) at 200 ppm [2] | mortality at 200 ppm [3] | percent effect (mortality or growth inhibition) at 200 ppm [4] | mortality at 200 ppm [5] | percent effect (mortality or growth inhibition) at 200 ppm [6] | mortality at 200 ppm [7] | mortality at 50 ppm [8] | percent control (mortality, anti-feedant effect or growth inhibition) at 200 ppm [9]

CCS(=O)(=O)c1cc(OC(C)(C)C#N)cnc1-c1nc2cc(C(F)(F)F)nnc2n1C [Compound P2, 2-[[5-ethylsulfonyl-6-[7-methyl-3-(trifluoromethyl)imidazo[4,5-c]pyridazin-6-yl]-3-pyridyl]oxy]-2-methyl-propanenitrile]
≥ 80%: mortality at 12.5 ppm [1] | mortality at 200 ppm [3] | percent effect (mortality or growth inhibition) at 200 ppm [10] | percent effect (mortality or growth inhibition) at 200 ppm [4] | mortality at 24 ppm [11] | percent effect (mortality or growth inhibition) at 200 ppm [6] | mortality at 200 ppm [7] | mortality at 50 ppm [8] | percent control (mortality, anti-feedant effect or growth inhibition) at 200 ppm [9]

CCS(=O)(=O)c1cc(OC(C)(C)C#N)c(C)nc1-c1nc2cc(C(F)(F)F)cnc2n1C [Compound P4, 2-[[5-ethylsulfonyl-2-methyl-6-[3-methyl-6-(trifluoromethyl)imidazo[4,5-b]pyridin-2-yl]-3-pyridyl]oxy]-2-methyl-propanenitrile]
≥ 80%: mortality at 12.5 ppm [1] | percent effect (mortality or growth inhibition) at 12.5 ppm [12] | mortality at 200 ppm [3] | percent effect (mortality or growth inhibition) at 200 ppm [10] | percent effect (mortality or growth inhibition) at 200 ppm [4] | mortality at 200 ppm [5] | percent effect (mortality or growth inhibition) at 200 ppm [6] | mortality at 200 ppm [7] | percent control (mortality, anti-feedant effect or growth inhibition) at 200 ppm [9]

CCS(=O)(=O)c1cc(OC(C)(C)C#N)cnc1-c1nc2cc3c(cc2n1C)OC(F)(F)O3 [Compound P15, 2-[[6-(2,2-difluoro-7-methyl-[1,3]dioxolo[4,5-f]benzimidazol-6-yl)-5-ethylsulfonyl-3-pyridyl]oxy]-2-methyl-propanenitrile]
≥ 80%: percent effect (mortality or growth inhibition) at 12.5 ppm [12] | percent effect (mortality or growth inhibition) at 200 ppm [2] | mortality at 200 ppm [3] | percent effect (mortality or growth inhibition) at 200 ppm [4] | percent effect (mortality or growth inhibition) at 200 ppm [6] | mortality at 200 ppm [7] | percent control (mortality, anti-feedant effect or growth inhibition) at 200 ppm [9]

CCS(=O)(=O)c1cc(OC(C)(C)C#N)cnc1-c1nc2cc3c(cc2o1)OC(F)(F)O3 [Compound P16, 2-[[6-(2,2-difluoro-[1,3]dioxolo[4,5-f][1,3]benzoxazol-6-yl)-5-ethylsulfonyl-3-pyridyl]oxy]-2-methyl-propanenitrile]
≥ 80%: percent effect (mortality or growth inhibition) at 12.5 ppm [12] | percent effect (mortality or growth inhibition) at 200 ppm [2] | percent effect (mortality or growth inhibition) at 200 ppm [4] | percent effect (mortality or growth inhibition) at 200 ppm [6] | mortality at 200 ppm [7] | percent control (mortality, anti-feedant effect or growth inhibition) at 200 ppm [9]

Source: US20230167122A1, “PESTICIDALLY ACTIVE HETEROCYCLIC DERIVATIVES WITH SULFUR CONTAINING SUBSTITUENTS” (SYNGENTA CROP PROTECTION AG, priority 2020, published 2023)
